Literature values, collected in patent US20100069398A1, “Combination therapy” (priority 2004, published 2010).

Tested on: tumour models
Details: once-daily oral administration, range of models

COc1cc2c(Nc3ccc(Br)cc3F)ncnc2cc1OCC1CCN(C)CC1 [ZD6474, 4-(4-bromo-2-fluoroanilino)-6-methoxy-7-(1-methylpiperidin-4-ylmethoxy)quinazoline]
anti-tumour activity: broad-spectrum anti-tumour activity
